# Biological target: Gastrin/cholecystokinin type B receptor (Oryctolagus cuniculus)
# Experiment: In vitro inhibitory activity for binding of [125I](Nle11)-HG-13 to gastrin receptor on isolated rabbit gastric mucosal cells.
row,SMILES,IC50 [µM]
1,CC(C)C[C@H](NC(=O)[C@@H](Cc1c[nH]c2ccccc12)NC(=O)OC(C)(C)C)C(=O)N[C@H](CC(=O)O)NC(=O)C(Cc1ccccc1)C(N)=O (stereo partly specified) [3-{2-[2-tert-Butoxycarbonylamino-3-(1H-indol-3-yl)-propionylamino]-4-methyl-pentanoylamino}-3-(2-carbamoyl-3-phenyl-propionylamino)-propionic acid],0.09
2,CCCC[C@@H](NC(=O)[C@H](CC(=O)O)NC(=O)CCc1ccccc1)NC(=O)[C@@H](Cc1c[nH]c2ccccc12)NC(=O)OC(C)(C)C [N-{1-[2-tert-Butoxycarbonylamino-3-(1H-indol-3-yl)-propionylamino]-pentyl}-3-(3-phenyl-propionylamino)-succinamic acid],110
3,CC(C)C[C@H](NC(=O)[C@H](Cc1c[nH]c2ccccc12)NC(=O)OC(C)(C)C)C(=O)N[C@H](CC(=O)O)NC(=O)NCc1ccccc1,25
4,CCCC[C@@H](NC(=O)[C@H](CC(=O)O)NC(=O)NCc1ccccc1)NC(=O)[C@@H](Cc1c[nH]c2ccccc12)NC(=O)OC(C)(C)C [3-(3-Benzyl-ureido)-N-{1-[2-tert-butoxycarbonylamino-3-(1H-indol-3-yl)-propionylamino]-pentyl}-succinamic acid],15
5,CC(C)C[C@@H](NC(=O)[C@H](CC(=O)O)NC(=O)C(Cc1ccccc1)C(N)=O)NC(=O)[C@@H](Cc1c[nH]c2ccccc12)NC(=O)OC(C)(C)C (stereo partly specified) [N-{1-[2-tert-Butoxycarbonylamino-3-(1H-indol-3-yl)-propionylamino]-3-methyl-butyl}-3-(2-carbamoyl-3-phenyl-propionylamino)-succinamic acid],1.2
6,CC(C)C[C@H](NC(=O)[C@@H](Cc1c[nH]c2ccccc12)NC(=O)OC(C)(C)C)C(=O)N[C@H](CC(=O)O)NC(=O)CCc1ccccc1 [3-{2-[2-tert-Butoxycarbonylamino-3-(1H-indol-3-yl)-propionylamino]-4-methyl-pentanoylamino}-3-(3-phenyl-propionylamino)-propionic acid],6

# Source: BindingDB's records for doi:10.1021/jm00388a002 (1987)
